Reference: patent publication US20040014676A1, “SRC kinase inhibitors useful for treating osteoporosis” (priority 2001, published 2004)

What follows are molecules tested against T1, Src kinase (Homo sapiens, UniProt P12931) (assay: Phosphorylation assay of Src kinase inhibitors (radiometric, 96 well filter plate)). Conditions: duplicates, tested in the range of 400-0.098 µM; 10 µM peptide substrate (FIYGAFKKKKNH2), 5 µM unlabeled ATP, room temperature 30 min; read-out: IC50.
T1 construct: purchased Upstate Bioteolnology (sic; Upstate Biotechnology); later HMR stock 27597-019E1 #14-117
Type: biochemical
Procedure: The present invention provides novel compounds of Formulae I through XVIII discussed above. The following compounds which fall within Formulae I through XVIII are characterized by structure, IUPAC name and activity using phosphorylation assay for protein tyrosine Src kinase.
Phosphorylation Assay of Src Kinase Inhibitors
The activity of Src kinase was measured in a 96 well plate phosphorylation assay where the transfer of gamma phosphate from ATP to peptide substrate was measured radiometrically. […] Ki values were determined experimentally for some of the inhibitors. The phosphocellulose filter plates (Millipore catalog #MAPH NOB) were prewet prior to the phosphorylation assay by addition of 100 1 per well of 30 mM MES buffer+0.4 mg/ml BSA. After a 20-minute incubation, the buffer was removed completely via a Millipore vacuum manifold. The phosphorylation assay was then set up in the filter plates in a total volume per well of 60 1. The 60 1 consisted of compound (see concentration ranges above), a 1:100 dilution of Src kinase (originally Upstate Bioteolnology, #14-117; later HMR stock 27597-019E1) or assay buffer alone (for no enzyme control wells), 10 M peptide substrate (FIYGAFKKKKNH2), 5 M unlabeled ATP and a 1:500 dilution of P-ATP (New England Nuclear, catalog #NEG-602H, 2000 Ci/mmol). The reaction was mixed and incubated at room temperature for 30 min. The kinase reactions were stopped by addition of 150 mM H3PO4 and incubated for 10 minutes. The filter plate wells were filtered and washed seven times with 200 1 per well of 150 mM H3PO4. Finally, the filter plate was placed into a Packard plate adapter (Packard catalog #600517B), 35 1 of Microscint-20 (Packard catalog #6013621) was added to each well, the plate was sealed (TopSeal A sealers; Packard catalog #6005185) and counted on a Packard TopCount.

T1 sequence (P12931 whole entry): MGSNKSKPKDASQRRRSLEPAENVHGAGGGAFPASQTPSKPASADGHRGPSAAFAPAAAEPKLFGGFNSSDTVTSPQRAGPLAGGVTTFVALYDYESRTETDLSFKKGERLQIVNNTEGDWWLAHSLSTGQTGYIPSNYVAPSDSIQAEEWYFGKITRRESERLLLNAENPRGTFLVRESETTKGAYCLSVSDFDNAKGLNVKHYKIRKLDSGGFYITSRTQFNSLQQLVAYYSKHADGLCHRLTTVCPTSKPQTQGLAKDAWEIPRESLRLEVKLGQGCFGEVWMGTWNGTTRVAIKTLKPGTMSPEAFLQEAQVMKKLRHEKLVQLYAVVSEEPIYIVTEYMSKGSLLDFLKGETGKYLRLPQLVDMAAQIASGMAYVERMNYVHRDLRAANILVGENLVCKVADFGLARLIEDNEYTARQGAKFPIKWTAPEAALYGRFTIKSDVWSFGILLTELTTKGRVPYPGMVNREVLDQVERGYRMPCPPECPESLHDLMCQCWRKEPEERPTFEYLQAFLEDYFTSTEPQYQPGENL

| Structure (SMILES) | IC50 |
| --- | --- |
| NC(=O)CC(=O)Nc1cc2ccccc2cc1OCCCCNC(=O)[C@@H](N)Cc1ccc(O)cc1 [Compound 151, (2S)-2-amino-N-{4-[3-(2-carbamoylacetylamino)(2-naphthyloxy)]butyl}-3-(4-hydroxyphenyl)propanamide] | 5 µM |
| NC(=O)CNC(=O)c1cc2ccccc2cc1OCCCCNC(=O)[C@@H](N)Cc1ccc(O)cc1 [Example 5, 3-[4-[[2(S)-AMINO-3-(4-HYDROXY- PHENYL)-1-OXOPROPYL]AMINO]- BUTOXY]-2-[N-ACETAMIDO]- NAPHTHALENECARBOXAMIDE] | 0.47 µM |
| N[C@@H](Cc1ccc(O)cc1)C(=O)NCCCCOc1cc2ccccc2cc1C(=O)NCCO [Example 101, 3-[[4-[[1-OXO-2(S)-AMINO-3-(4- HYDROXYPHENYL)]PROPYL]AMINO]- BUTOXY]NAPHTHALENE-2-[N- (2-HYDROXYETHYL)]CARBOXAMIDE] | 15 µM |
| CC(NC(=O)c1cc2ccccc2cc1OCCCCNC(=O)[C@@H](N)Cc1ccc(O)cc1)C(N)=O (stereo partly drawn) [Example 9, 3-[4-[[2(S)-AMINO-3-(4-HYDROXY- PHENYL)-1-OXOPROPYL]AMINO]- BUTOXY]-NAPHTHALENE-2-N-[(1- AMIDO)ETHYL]CARBOXAMIDE] | 25 µM |
| NC(=O)CNC(=O)c1cc2ccccc2cc1OCCCNC(=O)[C@@H](N)Cc1ccc(O)cc1 [Example 93, 3-[5-[[[1-OXO-2(S)-AMINO-3-(4- HYDROXYPHENYL)]PROPYL]AMINO]- PROPYLOXY]NAPHTHALENE-2-(N- ACETAMIDO)CARBOXAMIDE] | 45 µM |
| C[C@@H](c1ccc(O)cc1)[C@H](N)C(=O)NCCCCOc1cc2ccccc2cc1C(=O)NCC(N)=O [Example 79, 3-[4-[[[(1-OXO-2(S)-AMINO-3(R)- METHYL-3-(4-HYDROXYPHENYL)]- PROPYL]AMINO]BUTOXY]- NAPHTHALENE-2-(N-ACETAMIDO)- CARBOXAMIDE] | 6 µM |
| NC(=O)CNC(=O)c1cc2ccccc2cc1OCCCCNC(=O)[C@@H](N)Cc1ccc2ccccc2c1 [Example 13, 3-[4-[[2(S)-AMINO-3-(NAPTHYL-2-YL)-1- OXOPROPYL]AMINO]BUTOXY]- NAPHTHALENE-2-[N-(2- AMIDOMETHYL)]CARBOXAMIDE] | 0.45 µM |
| NC(=O)CNC(=O)c1cc2ccccc2cc1OCCCCNC(=O)[C@@H](N)CCc1ccccc1 [Example 36, 3-[[4-[(2(S)-AMINO-3-(BENZYL-1- OXO)PROPYL]AMINO]BUTOXY]- NAPHTHALENE-2-(N- ACETAMIDO)CARBOXAMIDE] | 7.9 µM |
| NCC(=O)NCCCCOc1cc2ccccc2cc1C(=O)NCC(N)=O [Example 64, 3-[4-[[(1-OXO-2-AMINO)ETHYL]- AMINO]BUTOXY]-NAPHTHALENE-2- (N-ACETAMIDO)CARBOXAMIDE] | 68 µM |
| NC(=O)CNC(=O)c1cc2ccccc2cc1OCCCC(NC(=O)[C@H](N)Cc1csc2ccccc12)C(=O)O (stereo partly drawn) [Example 97, 3-[[4-[[1-OXO-2(S)-AMINO-3-(BENZO- THIOPHEN-3-YL)]PROPYL]AMINO][4- CARBOXY]BUTOXY]NAPHTHALENE-2- (N-ACETAMIDO)CARBOXAMIDE] | 26 µM |
| NC(=O)CNC(=O)c1cc2ccccc2cc1OCCCCNC(=O)[C@@H](N)c1ccccc1 [Example 37, 3-[[4-[(2(S)-AMINO-2-PHENYL-1- OXO)ETHYL]AMINO]BUTOXY]- NAPHTHALENE-2-(N- ACETAMIDO)CARBOXAMIDE] | 3.3 µM |
| NC(=O)CNC(=O)c1cc2ccccc2cc1OCc1ccc(N)cc1 [Example 119, 2-[4-AMINOBENZYLOXY]- NAPHTHALENE-3-[N-ACETAMIDO]- CARBOXAMIDE] | 25 µM |
| NC(=O)CNC(=O)c1cc2ccccc2cc1OCCCCNC(=O)[C@@H](N)Cc1cccnc1 [Example 48, 3-[[4-[[2(S)-AMINO-3-(PYRIDIN-3-YL)-1- OXO]PROPYL]AMINO]BUTOXY]- NAPHTHALENE-2-(N-ACETAMIDO)- CARBOXAMIDE] | 9.6 µM |
| C[C@H](c1ccc(O)cc1)[C@H](N)C(=O)NCCCCOc1cc2ccccc2cc1C(=O)NCC(N)=O [Example 78, 3-[4-[[[(1-OXO-2-AMINO-3(R)-METHYL- 3-(4-HYDROXY)PHENYL)]PROPYL]- AMINO]BUTOXY]-NAPHTHALENE-2- (N-ACETAMIDO)CARBOXAMIDE] | 6 µM |
